Literature values, collected in patent US20230184643A1, “METHOD FOR MEASURING OR IDENTIFYING A COMPONENT OF INTEREST IN SPECIMENS” (SHIMADZU CORPORATION, priority 2020, published 2023).
Marks after values point to notes of the source that are not given here.

Details: Table 4.1; Drug bank accessed November 2020

LogP: −4.3^a
Structure (SMILES): CN[C@@H]1[C@@H](O)[C@@H](O[C@@H]2[C@@H](O)[C@H](O[C@H]3OC(CN)=CC[C@H]3N)[C@@H](N)C[C@H]2N)OC[C@]1(C)O [Sisomicin]
